# Measurements as given in PubChem BioAssay (NCI).
#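 A five-concentration, 48-hour dose response in 96-well plates underlies each endpoint, interpolated linearly between surrounding concentrations. At the GI50, growth is halved. The concentration for full growth arrest is given as TGI.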
# How the values were obtained:
# Assay in all cases: NCI-60 cell line screen, 48 h
# SK-MEL-5 melanoma = test system: SK-MEL-5 melanoma
# ACHN renal = test system: ACHN renal
# SW-620 colon = test system: SW-620 colon
# RXF 393 renal = test system: RXF 393 renal
# DU-145 prostate = test system: DU-145 prostate
# SN12C renal = test system: SN12C renal
# HOP-62 NSCLC = test system: HOP-62 NSCLC
# EKVX NSCLC = test system: EKVX NSCLC
# NCI/ADR-RES ovarian = test system: NCI/ADR-RES ovarian
# PC-3 prostate = test system: PC-3 prostate
Structure (SMILES),GI50 (SK-MEL-5 melanoma),TGI (SK-MEL-5 melanoma),GI50 (ACHN renal),TGI (ACHN renal),GI50 (SW-620 colon),TGI (SW-620 colon),GI50 (RXF 393 renal),TGI (RXF 393 renal),GI50 (DU-145 prostate),TGI (DU-145 prostate),GI50 (SN12C renal),TGI (SN12C renal),GI50 (HOP-62 NSCLC),TGI (HOP-62 NSCLC),GI50 (EKVX NSCLC),TGI (EKVX NSCLC),GI50 (NCI/ADR-RES ovarian),TGI (NCI/ADR-RES ovarian),GI50 (PC-3 prostate),TGI (PC-3 prostate)
C=C1C(=O)O[C@H]2[C@H]1CC/C(CNS(=O)(=O)c1ccc3ccccc3c1)=C\CC[C@@]1(C)O[C@@H]21,2.89 µM,9.67 µM,0.514 µM,1.91 µM,1.01 µM,2.44 µM,1.3 µM,2.65 µM,1.34 µM,3.56 µM,2.15 µM,7.13 µM,12.5 µM,29.6 µM,2.48 µM,11.1 µM,7.11 µM,31.7 µM,7.59 µM,21.1 µM
O=C1CSC2=NCC3(NN12)c1ccccc1-c1ccccc13,–,> 10 µM,–,> 10 µM,–,> 10 µM,–,> 10 µM,–,> 10 µM,–,> 10 µM,–,> 10 µM,–,> 10 µM,–,> 10 µM,–,> 10 µM
COC(=O)c1ccccc1C#CCCCOS(C)(=O)=O,–,> 10 µM,–,> 10 µM,–,> 10 µM,–,> 10 µM,–,> 10 µM,–,> 10 µM,–,> 10 µM,–,> 10 µM,–,> 10 µM,–,> 10 µM
Cc1[nH]c(C(=O)Nc2ccc(C(=O)N3CCNCC3)cc2OC(C)C)c(Cl)c1Cl,1.73 µM,3.13 µM,1.68 µM,3.07 µM,1.9 µM,3.59 µM,1.59 µM,3.25 µM,2.06 µM,4.06 µM,1.94 µM,4.28 µM,1.81 µM,4.65 µM,3.49 µM,15 µM,2.25 µM,5.58 µM,2.02 µM,5.44 µM
O=S1(=O)N(Cc2ccccc2)[C@@H](Cc2ccccc2)C2O[C@H]2[C@H](Cc2ccccc2)N1Cc1ccccc1 (stereo not given in full),1.79 µM,> 7.5 µM,5.88 µM,> 7.5 µM,> 7.5 µM,> 7.5 µM,> 7.5 µM,> 7.5 µM,> 7.5 µM,> 7.5 µM,> 7.5 µM,> 7.5 µM,> 7.5 µM,> 7.5 µM,6.55 µM,> 7.5 µM,5.23 µM,> 7.5 µM,3.06 µM,> 7.5 µM
NS(=O)(=O)c1ccc(C2C3=C(CCCC3=O)OC3=C2C(=O)c2ccccc2C3=O)cc1 (stereo not given),1.18 µM,2.43 µM,1.24 µM,2.53 µM,0.417 µM,1.33 µM,1.45 µM,2.84 µM,0.74 µM,1.99 µM,0.319 µM,1.03 µM,1.49 µM,2.91 µM,0.699 µM,2.53 µM,2.43 µM,14.6 µM,0.371 µM,1.33 µM
C=C1C(=O)O[C@H]2[C@H]1CC/C(CNC(=O)/C=C/c1cccc(OC)c1)=C\CC[C@@]1(C)O[C@@H]21,1.69 µM,3.18 µM,1.14 µM,2.67 µM,0.958 µM,2.33 µM,1.05 µM,2.33 µM,1.19 µM,2.49 µM,1.53 µM,4.34 µM,3.17 µM,14.8 µM,1.85 µM,5.62 µM,3.79 µM,17.8 µM,1.8 µM,3.86 µM
OCc1cccc(-c2ccc3ncc(-c4nc(NC5CC5)ncc4F)n3c2)c1,0.275 µM,0.821 µM,0.134 µM,1.24 µM,0.258 µM,0.971 µM,0.139 µM,0.356 µM,0.287 µM,1.83 µM,0.281 µM,1.57 µM,0.266 µM,2.7 µM,0.296 µM,0.946 µM,0.321 µM,1.68 µM,0.314 µM,3.23 µM
Cc1nc2cncc(C#Cc3cncc(C(=O)Nc4ccc(CN5CCN(C)CC5)c(C(F)(F)F)c4)c3)c2nc1C,0.839 µM,2.35 µM,0.183 µM,2.53 µM,0.284 µM,1.64 µM,0.268 µM,1.76 µM,0.349 µM,6.48 µM,0.275 µM,17 µM,0.839 µM,5 µM,0.8 µM,5.05 µM,1.83 µM,8.65 µM,1.51 µM,12.2 µM
Nc1ccc(N=Nc2ccccc2)c(N)n1,26.3 µM,> 100 µM,37.2 µM,> 100 µM,28.6 µM,> 100 µM,20.3 µM,60.7 µM,25.2 µM,81 µM,30.4 µM,> 100 µM,33.9 µM,> 100 µM,4.08 µM,33.4 µM,31 µM,> 100 µM,21.7 µM,> 100 µM
